Assay results from US7647217B2, “Structure of the farnesoid X receptor ligand binding domain and methods of use therefor” (The Salk Institute for Biological Studies, priority 2002, dated 2010).

What was measured:
Assay in all cases: GAL4 chimeric NHR cross-reactivity assay
Type in all cases: cell-based
Conditions in all cases: 10 μM
hRXRα = target: T1, hRXRα (Homo sapiens, UniProt P19793)
T1 construct: expressed in transfected cells; host or cells: CV-1 (monkey)
T1 sequence (P19793 227-458 limits assumed): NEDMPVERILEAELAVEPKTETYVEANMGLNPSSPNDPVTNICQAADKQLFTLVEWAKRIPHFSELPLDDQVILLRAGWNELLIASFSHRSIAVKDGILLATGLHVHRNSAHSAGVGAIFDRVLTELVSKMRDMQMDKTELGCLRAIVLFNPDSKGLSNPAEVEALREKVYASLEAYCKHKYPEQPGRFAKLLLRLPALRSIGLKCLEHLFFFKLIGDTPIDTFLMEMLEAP
Procedure: (§1) FIGS. 3A-3E collectively show the results of ligand activation of CV-1 cells co-transfected with a luciferase reporter gene with a variety of receptor expression constructs. […] FIGS. 3C-3E show the results of CV-1 cells transiently transfected with the indicated reporter constructs, treated with either DMSO or 10 μM of the compounds fexaramine (3C), fexarine (3D), fexarene (3E). Reporter activity was normalized to the internal control and the data plotted as fold activation relative to untreated cells. All transfections contained CMX-βgal as an internal control.
(§2) The expression plasmids pCMX, pCMX-LacZ, pCMX-mFXRFL, pCMX-hRXRFL, pCMX-GALDBD-rFXRLBD and other pCUX-GALDBD-NR LBDs (hRXRα, hPPARαγδ, mPXR, hPXR, hLXRα, HTRβ, hRARβ, mCAR, mERR3 and hVDR) have been described elsewhere (Blumberg et al. (1998). SXR, a novel steroid and xenobiotic-sensing nuclear receptor. Genes Dev. 12(20), 3195-205). The reporter plasmids pMH2004-TK-luc, pTKECRE*6-luc, pTKER-8*2-luc and pMRP-2-luc also have been described elsewhere. The hPLTP-luc promoter was kindly provided by Dr Dennis Dowhan and the hIBABP-luc promoter was created from a plasmid provided by Dr Philippe Besnard.
(§3) Cell-based transcriptional activation assays using chimeric nuclear hormone receptor (NHR) constructs were established to measure the selectivity of the compounds to FXR relative to other NHRs (Forman et al. (1995). Identification of a nuclear receptor that is activated by farnesol metabolites. Cell 81, 687-693). These assays used fusion proteins with the yeast GAL4 DNA binding domain connected to the ligand-binding domain (LBD) of NHRs. These constructs were co-transfected with a thymidine kinase C minimal promoter reporter vector containing four copies of the GAL4 binding site. Titration experiments were then performed using the identified compounds. […] Addition of RXR had no effect on the activation potential of fexaramine, fexarine, fexarene in this assay.
(§4) No activity was observed on other chimeric NHR constructs including hRXRα, hPPARαγδ, mPXR, hPXR, hLXRα, hTRβ, hRARβ, mCAR, mERR3 and hVDR (see FIGS. 3C-3E).

mPXR = target: T2, mPXR (Mus musculus, UniProt O54915)
T2 construct: expressed in transfected cells; host or cells: CV-1 (monkey)
T2 sequence (O54915 143-430 limits assumed): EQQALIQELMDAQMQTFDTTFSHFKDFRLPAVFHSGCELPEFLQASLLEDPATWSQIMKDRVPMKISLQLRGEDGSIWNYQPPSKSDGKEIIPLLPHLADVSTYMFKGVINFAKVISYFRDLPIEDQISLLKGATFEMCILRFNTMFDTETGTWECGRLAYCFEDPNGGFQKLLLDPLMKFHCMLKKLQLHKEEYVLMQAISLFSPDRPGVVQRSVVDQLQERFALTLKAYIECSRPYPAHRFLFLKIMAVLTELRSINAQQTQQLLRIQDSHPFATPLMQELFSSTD
Procedure: as §1, §2, §3, §4

hVDR = target: T3, hVDR (Homo sapiens, UniProt P11473)
T3 construct: expressed in transfected cells; host or cells: CV-1 (monkey)
T3 sequence (P11473 127-423 limits assumed): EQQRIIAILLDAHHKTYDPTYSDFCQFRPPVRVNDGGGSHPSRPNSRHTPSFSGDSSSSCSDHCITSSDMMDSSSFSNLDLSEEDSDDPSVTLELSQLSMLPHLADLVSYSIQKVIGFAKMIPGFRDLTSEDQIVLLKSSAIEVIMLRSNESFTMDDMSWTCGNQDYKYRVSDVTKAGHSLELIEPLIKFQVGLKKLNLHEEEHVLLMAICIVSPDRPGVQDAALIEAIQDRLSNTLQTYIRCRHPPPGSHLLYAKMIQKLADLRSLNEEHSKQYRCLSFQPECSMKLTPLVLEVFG
Procedure: as §1, §2, §3, §4

mERR3 = target: T4, mERR3 (Mus musculus, UniProt P62509)
T4 construct: expressed in transfected cells; host or cells: CV-1 (monkey)
T4 sequence (P62509 233-457 limits assumed): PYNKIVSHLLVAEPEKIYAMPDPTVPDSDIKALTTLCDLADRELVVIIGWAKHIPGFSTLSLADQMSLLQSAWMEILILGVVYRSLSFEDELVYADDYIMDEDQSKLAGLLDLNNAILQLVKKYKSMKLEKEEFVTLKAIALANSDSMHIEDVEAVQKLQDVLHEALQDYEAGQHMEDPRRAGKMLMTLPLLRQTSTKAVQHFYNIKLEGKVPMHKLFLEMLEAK
Procedure: as §1, §2, §3, §4

hLXRα = target: T5, hLXRα (Homo sapiens, UniProt Q13133)
T5 construct: expressed in transfected cells; host or cells: CV-1 (monkey)
T5 sequence (Q13133 209-447 limits assumed): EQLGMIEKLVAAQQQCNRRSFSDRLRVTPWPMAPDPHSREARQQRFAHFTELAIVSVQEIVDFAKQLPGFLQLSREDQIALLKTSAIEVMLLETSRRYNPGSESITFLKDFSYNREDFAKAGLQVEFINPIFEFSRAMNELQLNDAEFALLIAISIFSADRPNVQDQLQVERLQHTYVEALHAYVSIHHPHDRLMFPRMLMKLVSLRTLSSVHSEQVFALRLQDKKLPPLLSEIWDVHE
Procedure: as §1, §2, §3, §4

hTRβ = target: T6, hTRβ (Homo sapiens, UniProt P10828)
T6 construct: expressed in transfected cells; host or cells: CV-1 (monkey)
T6 sequence (P10828 217-461 limits assumed): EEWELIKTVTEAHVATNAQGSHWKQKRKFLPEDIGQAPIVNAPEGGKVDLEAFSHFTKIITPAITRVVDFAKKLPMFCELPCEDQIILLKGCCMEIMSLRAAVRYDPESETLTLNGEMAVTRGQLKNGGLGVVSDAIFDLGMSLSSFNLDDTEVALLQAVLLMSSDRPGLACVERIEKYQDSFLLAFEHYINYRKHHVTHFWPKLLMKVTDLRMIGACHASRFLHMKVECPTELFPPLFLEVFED
Procedure: as §1, §2, §3, §4

COC(=O)/C=C/c1cccc(N(Cc2ccc(-c3ccc(N(C)C)cc3)cc2)C(=O)C2CCCCC2)c1 [fexaramine]
No activity: activity on chimeric hRXRα construct (hRXRα) | activity on chimeric mPXR construct (mPXR) | activity on chimeric hVDR construct (hVDR) | activity on chimeric mERR3 construct (mERR3) | activity on chimeric hLXRα construct (hLXRα) | activity on chimeric hTRβ construct (hTRβ)

COC(=O)/C=C/c1cccc(N(Cc2ccc(-c3ccc4c(c3)OCO4)cc2)C(=O)C2CCCCC2)c1 [fexarine]
No activity: activity on chimeric hRXRα construct (hRXRα) | activity on chimeric mPXR construct (mPXR) | activity on chimeric hVDR construct (hVDR) | activity on chimeric mERR3 construct (mERR3) | activity on chimeric hLXRα construct (hLXRα) | activity on chimeric hTRβ construct (hTRβ)

COC(=O)/C=C/c1cccc(N(Cc2ccc(/C=C/c3ccccc3)cc2)C(=O)C2CCCCC2)c1 [fexarene]
No activity: activity on chimeric hRXRα construct (hRXRα) | activity on chimeric mPXR construct (mPXR) | activity on chimeric hVDR construct (hVDR) | activity on chimeric mERR3 construct (mERR3) | activity on chimeric hLXRα construct (hLXRα) | activity on chimeric hTRβ construct (hTRβ)
